Source: ChEMBL document CHEMBL1127758 (Bioorg Med Chem Lett, 1994)
One block for each molecule: values may come before it.

Legend:
[1] = Inhibitory activity against phosphorylase kinase was determined
[2] = molecular target: cAMP-dependent protein kinase (PKA) (Homo sapiens, UniProt P22694+P17612+P22612)
Description: Inhibitory activity against cAMP-dependent protein kinase A was determined

[3] = molecular target: Proto-oncogene tyrosine-protein kinase Src (Homo sapiens, UniProt P12931); test: Inhibition of Src tyrosine kinase
[4] = Inhibition of Ribosomal protein S6 kinase
[5] = molecular target: Epidermal growth factor receptor (Homo sapiens, UniProt P00533)
Epidermal growth factor receptor, sequence (P00533 whole entry): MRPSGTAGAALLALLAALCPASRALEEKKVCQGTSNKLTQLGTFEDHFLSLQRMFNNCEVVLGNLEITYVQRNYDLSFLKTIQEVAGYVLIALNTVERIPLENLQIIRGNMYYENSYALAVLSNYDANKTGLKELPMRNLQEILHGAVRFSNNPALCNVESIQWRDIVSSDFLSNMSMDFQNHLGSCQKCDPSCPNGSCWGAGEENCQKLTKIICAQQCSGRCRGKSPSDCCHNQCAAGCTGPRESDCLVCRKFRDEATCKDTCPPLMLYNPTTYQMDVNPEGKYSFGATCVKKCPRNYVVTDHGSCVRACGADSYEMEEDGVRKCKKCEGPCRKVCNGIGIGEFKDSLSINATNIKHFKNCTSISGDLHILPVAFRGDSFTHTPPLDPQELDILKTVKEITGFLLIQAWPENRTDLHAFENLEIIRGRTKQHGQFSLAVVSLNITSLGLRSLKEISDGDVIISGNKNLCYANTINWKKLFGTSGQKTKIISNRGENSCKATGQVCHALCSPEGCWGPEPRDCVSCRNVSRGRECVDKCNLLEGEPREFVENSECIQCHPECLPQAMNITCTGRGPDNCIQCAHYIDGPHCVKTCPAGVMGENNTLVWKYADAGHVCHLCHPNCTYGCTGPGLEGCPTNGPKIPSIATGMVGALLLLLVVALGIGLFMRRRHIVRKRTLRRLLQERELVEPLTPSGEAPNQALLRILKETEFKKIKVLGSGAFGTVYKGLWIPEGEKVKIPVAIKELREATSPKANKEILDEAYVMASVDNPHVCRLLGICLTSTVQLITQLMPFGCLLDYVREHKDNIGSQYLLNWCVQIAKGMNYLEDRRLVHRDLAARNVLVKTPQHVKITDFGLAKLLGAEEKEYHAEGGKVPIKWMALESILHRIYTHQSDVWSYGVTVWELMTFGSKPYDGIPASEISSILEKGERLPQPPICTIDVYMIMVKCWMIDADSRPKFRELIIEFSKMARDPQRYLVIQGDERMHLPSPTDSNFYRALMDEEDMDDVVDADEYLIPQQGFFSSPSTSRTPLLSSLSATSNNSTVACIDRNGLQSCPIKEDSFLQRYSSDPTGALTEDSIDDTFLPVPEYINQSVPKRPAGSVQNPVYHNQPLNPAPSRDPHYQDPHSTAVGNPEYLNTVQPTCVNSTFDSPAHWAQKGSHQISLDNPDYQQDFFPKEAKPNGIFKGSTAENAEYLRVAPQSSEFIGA
Description: Inhibitory activity against protein tyrosine kinase of Epidermal growth factor receptor was determined

Proto-oncogene tyrosine-protein kinase Src, sequence (P12931 2-536 limits assumed): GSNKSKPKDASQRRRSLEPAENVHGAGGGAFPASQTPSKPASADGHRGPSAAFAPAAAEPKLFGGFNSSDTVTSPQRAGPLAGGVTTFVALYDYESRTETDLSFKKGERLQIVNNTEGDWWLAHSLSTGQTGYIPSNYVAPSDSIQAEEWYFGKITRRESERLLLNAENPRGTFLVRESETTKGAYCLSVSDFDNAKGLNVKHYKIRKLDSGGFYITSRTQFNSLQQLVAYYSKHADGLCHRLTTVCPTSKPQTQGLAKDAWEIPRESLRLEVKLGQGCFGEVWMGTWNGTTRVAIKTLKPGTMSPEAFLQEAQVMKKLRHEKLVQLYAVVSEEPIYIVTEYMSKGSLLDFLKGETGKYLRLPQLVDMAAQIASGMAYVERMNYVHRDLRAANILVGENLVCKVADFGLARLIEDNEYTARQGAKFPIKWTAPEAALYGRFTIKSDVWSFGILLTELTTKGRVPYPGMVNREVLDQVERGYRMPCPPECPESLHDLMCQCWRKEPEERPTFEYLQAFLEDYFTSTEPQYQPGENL

IC50 [1]: 70 nM
IC50 [2]: 1600 nM
IC50 [3]: 240 nM
SMILES: CCN(C)[C@H]1C[C@@H]2O[C@](C)([C@H]1OC)n1c3ccccc3c3c4c(c5c6ccccc6n2c5c31)C(=O)NC4

IC50 [1]: 40 nM
IC50 [2]: 480 nM
SMILES: COC(=O)N(C)[C@H]1C[C@@H]2O[C@](C)([C@H]1OC)n1c3ccccc3c3c4c(c5c6ccccc6n2c5c31)C(=O)NC4

IC50 [1]: 10 nM
IC50 [2]: 1500 nM
SMILES: CO[C@H]1[C@@H](N(C)C(C)=O)C[C@@H]2O[C@@]1(C)n1c3ccccc3c3c4c(c5c6ccccc6n2c5c31)C(=O)NC4

IC50 [1]: 60 nM
IC50 [2]: 2500 nM
IC50 [4]: 100 nM
SMILES: CO[C@H]1[C@@H](N(C)C(=O)c2cccc([N+](=O)[O-])c2)C[C@@H]2O[C@@]1(C)n1c3ccccc3c3c4c(c5c6ccccc6n2c5c31)C(=O)NC4

IC50 [1]: 19 nM
IC50 [2]: 1000 nM
SMILES: CO[C@H]1[C@@H](N(C)S(C)(=O)=O)C[C@@H]2O[C@@]1(C)n1c3ccccc3c3c4c(c5c6ccccc6n2c5c31)C(=O)NC4

IC50 [1]: 100 nM
IC50 [2]: 480 nM
SMILES: CO[C@H]1[C@@H](N(C)Cc2ccccc2)C[C@@H]2O[C@@]1(C)n1c3ccccc3c3c4c(c5c6ccccc6n2c5c31)C(=O)NC4

IC50 [1]: 78 nM
IC50 [2]: 1500 nM
SMILES: CO[C@H]1[C@@H](N(C)C(=O)c2ccccc2Cl)C[C@@H]2O[C@@]1(C)n1c3ccccc3c3c4c(c5c6ccccc6n2c5c31)C(=O)NC4

IC50 [1]: 320 nM
IC50 [2]: 2600 nM
SMILES: CO[C@H]1[C@@H](N(C)C(=O)c2ccc(Cl)cc2)C[C@@H]2O[C@@]1(C)n1c3ccccc3c3c4c(c5c6ccccc6n2c5c31)C(=O)NC4

IC50 [1]: 130 nM
IC50 [2]: 1500 nM
SMILES: COc1ccc(C(=O)N(C)[C@H]2C[C@@H]3O[C@](C)([C@H]2OC)n2c4ccccc4c4c5c(c6c7ccccc7n3c6c42)C(=O)NC5)cc1

IC50 [1]: 370 nM
IC50 [2]: > 100000 nM
IC50 [4]: 200 nM
SMILES: CO[C@H]1[C@@H](N(C)C(=O)c2cc([N+](=O)[O-])cc([N+](=O)[O-])c2)C[C@@H]2O[C@@]1(C)n1c3ccccc3c3c4c(c5c6ccccc6n2c5c31)C(=O)NC4

IC50 [1]: 15 nM
IC50 [2]: 140 nM
SMILES: CO[C@H]1[C@@H](N(C)CC(=O)O)C[C@@H]2O[C@@]1(C)n1c3ccccc3c3c4c(c5c6ccccc6n2c5c31)C(=O)NC4

IC50 [1]: 12 nM
IC50 [2]: 380 nM
SMILES: CO[C@H]1[C@@H](N(C)C(=O)c2cccnc2)C[C@@H]2O[C@@]1(C)n1c3ccccc3c3c4c(c5c6ccccc6n2c5c31)C(=O)NC4

IC50 [1]: 270 nM
IC50 [2]: 750 nM
SMILES: CO[C@H]1[C@@H](N(C)C(=O)c2ccccc2)C[C@@H]2O[C@@]1(C)n1c3ccccc3c3c4c(c5c6ccccc6n2c5c31)C(=O)NC4=O

IC50 [1]: 10 nM
IC50 [2]: 17000 nM
IC50 [4]: 100 nM
SMILES: CO[C@H]1[C@@H](N(C)C(=O)C(F)(F)F)C[C@@H]2O[C@@]1(C)n1c3ccccc3c3c4c(c5c6ccccc6n2c5c31)C(=O)NC4

IC50 [1]: 53 nM
IC50 [2]: 3670 nM
SMILES: COC(=O)c1ccc(C(=O)N(C)[C@H]2C[C@@H]3O[C@](C)([C@H]2OC)n2c4ccccc4c4c5c(c6c7ccccc7n3c6c42)C(=O)NC5)cc1

IC50 [1]: 62 nM
IC50 [2]: 700 nM
IC50 [3]: 200 nM
SMILES: CO[C@H]1[C@@H](N(C)C(=O)CCC(=O)O)C[C@@H]2O[C@@]1(C)n1c3ccccc3c3c4c(c5c6ccccc6n2c5c31)C(=O)NC4

IC50 [1]: 10 nM
IC50 [2]: 1600 nM
IC50 [5]: 12500 nM
IC50 [4]: 900 nM
SMILES: CNC(=S)N(C)[C@H]1C[C@@H]2O[C@](C)([C@H]1OC)n1c3ccccc3c3c4c(c5c6ccccc6n2c5c31)C(=O)NC4

IC50 [1]: 20 nM
IC50 [2]: 750 nM
IC50 [5]: 8180 nM
SMILES: CO[C@H]1[C@@H](N(C)C(=O)c2cnccn2)C[C@@H]2O[C@@]1(C)n1c3ccccc3c3c4c(c5c6ccccc6n2c5c31)C(=O)NC4

IC50 [1]: 48 nM
SMILES: CO[C@H]1[C@@H](N(C)C(=O)c2ccccc2)C[C@@H]2O[C@@]1(C)n1c3ccccc3c3c4c(c5c6ccccc6n2c5c31)C(=O)NC4

IC50 [1]: 420 nM
IC50 [2]: 28000 nM
IC50 [4]: 1000 nM
SMILES: CO[C@H]1[C@@H](N(C)C(=O)OC(C)(C)C)C[C@@H]2O[C@@]1(C)n1c3ccccc3c3c4c(c5c6ccccc6n2c5c31)C(=O)NC4

IC50 [1]: 51 nM
IC50 [2]: 360 nM
SMILES: CO[C@H]1[C@@H](N(C)C(=O)CN)C[C@@H]2O[C@@]1(C)n1c3ccccc3c3c4c(c5c6ccccc6n2c5c31)C(=O)NC4

IC50 [1]: 1900 nM
IC50 [2]: 6800 nM
SMILES: CO[C@H]1[C@@H](N(C)C(=O)c2cccc(Cl)c2)C[C@@H]2O[C@@]1(C)n1c3ccccc3c3c4c(c5c6ccccc6n2c5c31)C(=O)NC4

IC50 [1]: 15 nM
IC50 [2]: 55 nM
SMILES: CO[C@H]1[C@@H](N(C)c2ccccc2)C[C@@H]2O[C@@]1(C)n1c3ccccc3c3c4c(c5c6ccccc6n2c5c31)C(=O)NC4

IC50 [1]: 30 nM
IC50 [2]: 10000 nM
IC50 [4]: 100 nM
SMILES: CO[C@H]1[C@@H](N(C)C(=O)c2ccc(C(=O)O)cc2)C[C@@H]2O[C@@]1(C)n1c3ccccc3c3c4c(c5c6ccccc6n2c5c31)C(=O)NC4

Second part, the molecule before the results:

SMILES: CN[C@H]1C[C@@H]2O[C@](C)([C@H]1OC)n1c3ccccc3c3c4c(c5c6ccccc6n2c5c31)[C@@H](O)NC4=O
IC50 [1]: 170 nM
IC50 [2]: 3300 nM

SMILES: CO[C@H]1[C@@H](N(C)CCC#N)C[C@@H]2O[C@@]1(C)n1c3ccccc3c3c4c(c5c6ccccc6n2c5c31)C(=O)NC4
IC50 [1]: 24 nM
IC50 [2]: 1400 nM

SMILES: COC(=O)CN1Cc2c(c3c4ccccc4n4c3c3c2c2ccccc2n3[C@]2(C)O[C@H]4C[C@H](N(C)C(=O)c3ccccc3)[C@@H]2OC)C1=O
IC50 [1]: ~100000 nM
IC50 [2]: > 100000 nM
IC50 [4]: > 100000 nM

SMILES: CO[C@H]1[C@@H]([N+](C)(C)C)C[C@@H]2O[C@@]1(C)n1c3ccccc3c3c4c(c5c6ccccc6n2c5c31)C(=O)NC4
IC50 [1]: 21 nM
IC50 [2]: 68 nM
IC50 [4]: 50 nM

SMILES: CCCCC(O)CN(C)[C@H]1C[C@@H]2O[C@](C)([C@H]1OC)n1c3ccccc3c3c4c(c5c6ccccc6n2c5c31)C(=O)NC4 (some centres not stated)
IC50 [1]: 50 nM
IC50 [2]: 360 nM

SMILES: CO[C@H]1[C@@H](N(C)C(=O)CNC(=O)OC(C)(C)C)C[C@@H]2O[C@@]1(C)n1c3ccccc3c3c4c(c5c6ccccc6n2c5c31)C(=O)NC4
IC50 [1]: 120 nM
IC50 [2]: 2250 nM
IC50 [4]: 200 nM
IC50 [3]: 160 nM

SMILES: CN[C@H]1C[C@@H]2O[C@](C)([C@H]1OC)n1c3ccccc3c3c4c(c5c6ccccc6n2c5c31)C(=O)NC4=O
IC50 [1]: 5 nM
IC50 [2]: 26 nM
IC50 [3]: 800 nM

SMILES: CN[C@H]1C[C@@H]2O[C@](C)([C@H]1OC)n1c3ccccc3c3c4c(c5c6ccccc6n2c5c31)C(=O)N[C@@H]4O
IC50 [1]: 4 nM

SMILES: CN[C@H]1C[C@@H]2O[C@](C)([C@H]1OC)n1c3ccccc3c3c4c(c5c6ccccc6n2c5c31)[C@H](O)NC4=O
IC50 [1]: 22 nM
IC50 [2]: 2250 nM

SMILES: CO[C@H]1[C@@H](N(C)C(=O)c2ccccc2)C[C@@H]2O[C@@]1(C)n1c3ccccc3c3c4c(c5c6ccccc6n2c5c31)C(=O)N[C@@H]4O
IC50 [1]: 35 nM

SMILES: CO[C@H]1[C@@H](N(C)C(=O)C2CCCCC2)C[C@@H]2O[C@@]1(C)n1c3ccccc3c3c4c(c5c6ccccc6n2c5c31)C(=O)NC4
IC50 [1]: 80 nM
IC50 [2]: 1570 nM

SMILES: CN[C@H]1C[C@@H]2O[C@](C)([C@H]1OC)n1c3ccccc3c3c4c(c5c6ccccc6n2c5c31)C(=O)N[C@H]4O
IC50 [1]: 6 nM

SMILES: CC[N+](C)(C)[C@H]1C[C@@H]2O[C@](C)([C@H]1OC)n1c3ccccc3c3c4c(c5c6ccccc6n2c5c31)C(=O)NC4
IC50 [1]: 18 nM
IC50 [2]: 270 nM

SMILES: CO[C@H]1[C@@H](N(C)C(=O)c2ccccc2)C[C@@H]2O[C@@]1(C)n1c3ccccc3c3c4c(c5c6ccccc6n2c5c31)C(=O)N(Cc1ccccc1)C4
IC50 [1]: ~100000 nM
IC50 [2]: > 100000 nM
IC50 [4]: > 100000 nM

SMILES: CO[C@H]1[C@@H](N(C)OC(=O)C(C)(C)C)C[C@@H]2O[C@@]1(C)n1c3ccccc3c3c4c(c5c6ccccc6n2c5c31)C(=O)NC4=O
IC50 [1]: 5250 nM
IC50 [2]: > 100000 nM

SMILES: COC(=O)CN(C)[C@H]1C[C@@H]2O[C@](C)([C@H]1OC)n1c3ccccc3c3c4c(c5c6ccccc6n2c5c31)C(=O)NC4
IC50 [1]: 440 nM
IC50 [2]: 3200 nM
